Source: PubChem BioAssay AID1259411 (Chemical Carcinogenesis Research Information System (CCRIS), 2018)
Activity calls are given as the source filed them. No rule for the calls is given here.

Test system: rodent carcinogenicity bioassays, tumor incidence
Assay: CCRIS carcinogenicity studies
Outline: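 Archive of carcinogenicity, mutagenicity, tumor promotion and tumor inhibition results drawn from journals, NCI reports and other sources, expert-reviewed; covers 1985-2011 and is no longer updated.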

CCn1c2ccccc2c2cc(N)ccc21
carcinogen call (Species: MOUSE, Strain/Sex: B6C3F1/FEMALE, Route: ORAL, Dose: 0, 800, 1200 PPM IN DIET FOR 78 WK (STUDY DURATION: 95-97 WK), Dose: 0, 800, 1200 PPM IN DIET FOR 78 WK (STUDY DURATION: 95-97 WK), Tumor Site: Type of Lesion: LIVER: HEPATOCELLULAR CARCINOMA): active; positive | carcinogen call (Species: MOUSE, Strain/Sex: B6C3F1/MALE, Route: ORAL, Dose: 0, 800, 1200 PPM IN DIET FOR 78 WK (STUDY DURATION: 94-96 WK), Dose: 0, 800, 1200 PPM IN DIET FOR 78 WK (STUDY DURATION: 94-96 WK), Tumor Site: Type of Lesion: LIVER: HEPATOCELLULAR CARCINOMA, HEPATOCELLULAR ADENOMA OR CARCINOMA): active; positive | carcinogen call (Species: RAT, Strain/Sex: F344/FEMALE, Route: ORAL, Dose: 0, 800, 2000 PPM IN DIET FOR 78 WK (STUDY DURATION: 105-110 WK), Dose: 0, 800, 2000 PPM IN DIET FOR 78 WK (STUDY DURATION: 105-110 WK), Tumor Site: Type of Lesion: LIVER: NEOPLASTIC NODULE OR HEPATOCELLULAR CARCINOMA, UTERUS OR ENDOMETRIUM: ADENOCARCINOMA (NOS), EAR (ZYMBAL GLAND): S, Tumor Site: Type of Lesion: LIVER: NEOPLASTIC NODULE OR HEPATOCELLULAR CARCINOMA, UTERUS OR ENDOMETRIUM: ADENOCARCINOMA (NOS), EAR (ZYMBAL GLAND): S): active; positive | carcinogen call (Species: RAT, Strain/Sex: F344/MALE, Route: ORAL, Dose: 0, 800, 2000 PPM IN DIET FOR 78 WK (STUDY DURATION: 104-109 WK), Dose: 0, 800, 2000 PPM IN DIET FOR 78 WK (STUDY DURATION: 104-109 WK), Tumor Site: Type of Lesion: INTEGUMENTARY SYSTEM: BASAL CELL OR SQUAMOUS CELL CARCINOMA OR SQUAMOUS CELL PAPILLOMA, LIVER: HEPATOCELLULAR CARCINOMA): active; positive

COc1ccc(N)c(C)c1
carcinogen call (Species: MOUSE, Strain/Sex: B6C3F1/FEMALE, Route: GAVAGE, Dose: 0, 0.06, 0.11 G/KG (FOR 53 WK), Dose: 0, 0.06, 0.11 G/KG (FOR 53 WK)): inactive; negative | carcinogen call (Species: RAT, Strain/Sex: F344/FEMALE, Route: GAVAGE, Dose: 0, 0.08, 0.16 G/KG, Dose: 0, 0.08, 0.16 G/KG, Tumor Site: Type of Lesion: URINARY BLADDER: TRANSITIONAL CELL CARCINOMA): active; positive | carcinogen call (Species: RAT, Strain/Sex: F344/MALE, Route: GAVAGE, Dose: 0, 0.08, 0.16 G/KG, Dose: 0, 0.08, 0.16 G/KG, Tumor Site: Type of Lesion: URINARY BLADDER: TRANSITIONAL CELL CARCINOMA): active; positive

CNNCc1ccc(C(=O)NC(C)C)cc1
carcinogen call (Species: MOUSE, Strain/Sex: B6C3F1/FEMALE, Route: INTRAPERITONEAL, Dose: 0, 6, 12 MG/KG IN BUFFERED SALINE 3/WK FOR 52 WK (STUDY DURATION: 67-85 WK), Dose: 0, 6, 12 MG/KG IN BUFFERED SALINE 3/WK FOR 52 WK (STUDY DURATION: 67-85 WK), Tumor Site: Type of Lesion: LUNG: ALVEOLAR/BRONCHIOLAR ADENOMA, HEMATOPOIETIC SYSTEM (LEUKEMIA), LYMPHATIC SYSTEM: LYMPHOMA, UTERUS: ADENOCARCINOMA, Tumor Site: Type of Lesion: LUNG: ALVEOLAR/BRONCHIOLAR ADENOMA, HEMATOPOIETIC SYSTEM (LEUKEMIA), LYMPHATIC SYSTEM: LYMPHOMA, UTERUS: ADENOCARCINOMA): active; positive | carcinogen call (Species: MOUSE, Strain/Sex: B6C3F1/MALE, Route: INTRAPERITONEAL, Dose: 0, 6, 12 MG/KG IN BUFFERED SALINE 3/WK FOR 52 WK (STUDY DURATION: 67-85 WK), Dose: 0, 6, 12 MG/KG IN BUFFERED SALINE 3/WK FOR 52 WK (STUDY DURATION: 67-85 WK), Tumor Site: Type of Lesion: LUNG: ALVEOLAR/BRONCHIOLAR ADENOMA OR CARCINOMA, HEMATOPOIETIC SYSTEM (LEUKEMIA), LYMPHATIC SYSTEM: LYMPHOMA, BRAIN: OLF, Tumor Site: Type of Lesion: LUNG: ALVEOLAR/BRONCHIOLAR ADENOMA OR CARCINOMA, HEMATOPOIETIC SYSTEM (LEUKEMIA), LYMPHATIC SYSTEM: LYMPHOMA, BRAIN: OLF): active; positive | carcinogen call (Species: RAT, Strain/Sex: BR46/MALE, Route: INTRAVENOUS, Dose: 24 MG/KG 1/WK FOR 52 WK, Tumor Site: Type of Lesion: MULTIPLE SITES: BENIGN TUMOR OR MALIGNANT TUMOR): active; positive | carcinogen call (Species: RAT, Strain/Sex: SPRAGUE-DAWLEY/FEMALE, Route: INTRAPERITONEAL, Dose: 0, 15, 30 MG/KG IN BUFFERED SALINE 3/WK FOR 26 WK (STUDY DURATION: 31-86 WK), Dose: 0, 15, 30 MG/KG IN BUFFERED SALINE 3/WK FOR 26 WK (STUDY DURATION: 31-86 WK), Tumor Site: Type of Lesion: LYMPHATIC SYSTEM: MALIGNANT LYMPHOMA, MAMMARY GLAND: ADENOMA (NOS) OR ADENOCARCINOMA (NOS), BRAIN (CEREBRUM): OLFACTORY, Tumor Site: Type of Lesion: LYMPHATIC SYSTEM: MALIGNANT LYMPHOMA, MAMMARY GLAND: ADENOMA (NOS) OR ADENOCARCINOMA (NOS), BRAIN (CEREBRUM): OLFACTORY): active; positive | carcinogen call (Species: RAT, Strain/Sex: SPRAGUE-DAWLEY/MALE, Route: INTRAPERITONEAL, Dose: 0, 15, 30 MG/KG IN BUFFERED SALINE 3/WK FOR 26 WK (STUDY DURATION: 43-86 WK), Dose: 0, 15, 30 MG/KG IN BUFFERED SALINE 3/WK FOR 26 WK (STUDY DURATION: 43-86 WK), Tumor Site: Type of Lesion: HEMATOPOIETIC SYSTEM (LEUKEMIA), LYMPHATIC SYSTEM: MALIGNANT LYMPHOMA, MAMMARY GLAND: ADENOMA (NOS) OR ADENOSARCOMA (NOS, Tumor Site: Type of Lesion: HEMATOPOIETIC SYSTEM (LEUKEMIA), LYMPHATIC SYSTEM: MALIGNANT LYMPHOMA, MAMMARY GLAND: ADENOMA (NOS) OR ADENOSARCOMA (NOS): active; positive

c1ccc2c(c1)ccc1c2ccc2c3ccccc3ccc21
carcinogen call (Species: MOUSE, Strain/Sex: NMRI/FEMALE, Route: DERMAL, Dose: 0, 136, 448, 1358 NMOL (TOTAL DOSE) APPLIED AS 1 DROP OF ACETONE SOLUTION 3/WK FOR DURATION OF STUDY (STUDY DURATION: 11, Dose: 0, 136, 448, 1358 NMOL (TOTAL DOSE) APPLIED AS 1 DROP OF ACETONE SOLUTION 3/WK FOR DURATION OF STUDY (STUDY DURATION: 11, Tumor Site: Type of Lesion: SKIN: PAPILLOMA): active; positive | carcinogen call (Species: MOUSE, Strain/Sex: NMRI/FEMALE, Route: SUBCUTANEOUS, Dose: 0, 36, 40, 108, 308, 399 NMOL IN TRICAPRYLIN ONCE (STUDY DURATION: 112 WK), Dose: 0, 36, 40, 108, 308, 399 NMOL IN TRICAPRYLIN ONCE (STUDY DURATION: 112 WK), Tumor Site: Type of Lesion: INJECTION SITE: FIBROSARCOMA): active; positive | carcinogen call (Species: MOUSE, Strain/Sex: NMRI/FEMALE, Route: SUBCUTANEOUS, Dose: 0, 40, 400 NMOL IN 0.05 ML OF AN AQUEOUS SOLUTION CONTAINING 1% (W/W) GELATIN 0.9% (W/W) SODIUM CHLORIDE AND 0.4% (W/W), Dose: 0, 40, 400 NMOL IN 0.05 ML OF AN AQUEOUS SOLUTION CONTAINING 1% (W/W) GELATIN 0.9% (W/W) SODIUM CHLORIDE AND 0.4% (W/W), Tumor Site: Type of Lesion: LUNG: ADENOMA): active; positive

Oc1cccc(O)c1
carcinogen call (Species: MOUSE, Strain/Sex: B6C3F1/FEMALE, Route: GAVAGE, Dose: 0, 112, 225 MG/KG IN DEIONIZED WATER 5 D/WK FOR 104 WK (STUDY DURATION: 104 WK), Dose: 0, 112, 225 MG/KG IN DEIONIZED WATER 5 D/WK FOR 104 WK (STUDY DURATION: 104 WK)): inactive; negative | carcinogen call (Species: MOUSE, Strain/Sex: B6C3F1/MALE, Route: GAVAGE, Dose: 0, 112, 225 MG/KG IN DEIONIZED WATER 5 D/WK FOR 104 WK (STUDY DURATION: 104 WK), Dose: 0, 112, 225 MG/KG IN DEIONIZED WATER 5 D/WK FOR 104 WK (STUDY DURATION: 104 WK)): inactive; negative | carcinogen call (Species: RAT, Strain/Sex: F344/FEMALE, Route: GAVAGE, Dose: 0, 50, 100, 150 MG/KG IN DEIONIZED WATER 5 D/WK FOR 104 WK (STUDY DURATION: 104 WK), Dose: 0, 50, 100, 150 MG/KG IN DEIONIZED WATER 5 D/WK FOR 104 WK (STUDY DURATION: 104 WK)): inactive; negative | carcinogen call (Species: RAT, Strain/Sex: F344/MALE, Route: GAVAGE, Dose: 0, 112, 225 MG/KG IN DEIONIZED WATER 5 D/WK FOR 104 WK (STUDY DURATION: 104 WK), Dose: 0, 112, 225 MG/KG IN DEIONIZED WATER 5 D/WK FOR 104 WK (STUDY DURATION: 104 WK)): inactive; negative
